Usually IC50 stands for the concentration at which inhibition is half-maximal. Broadly, the AUC(0-inf) is the area under the concentration-time curve extrapolated to infinity. Read a high AUC(0-inf) as more exposure.

The record followed here is ChEMBL document CHEMBL4765432, “Design and synthesis of novel Flavone-based histone deacetylase inhibitors antagonizing activation of STAT3 in breast cancer” (Eur J Med Chem, 2020).

The source made the active and inactive calls. No cut-off for these calls is given here.

One data set addresses Histone deacetylase 11 (Homo sapiens, UniProt Q96DB2). In words: Inhibition of recombinant human N-terminal GST-tagged full length HDAC-11 expressed in baculovirus infected in Sf9 cells using Boc-Lys (q-Ac)-AMC as substrate incubated for 10 mins followed by substrate addition and measured after 30 mins by fluorescence based assay.
The subject of data set [1] is 4T1. In words: Induction of cell cycle arrest in mouse 4T1 cells assessed as increase in p21 expression at 0.25 to 5 uM incubated for 24 hrs by Western blot analysis. Type of data set: functional, cell-based. Particulars: dose 0.25-5 µM. (In general: In western blotting, separated proteins are transferred to a membrane and probed.)
A short description of data set [2]: AUC (0 to infinity) in Sprague-Dawley rat at 20 mg/kg, iv measured upto 12 hrs by LC-MS/MS analysis. Type of data set: ADME, organism-based. More on the design: route intravenous, dose 20 mg/kg, time <=12. The note with it: in vivo.
The test system of data set [3] is 4T1. Briefly: Induction of apoptosis in mouse 4T1 cells assessed as early apoptotic cells at 5 uM incubated for 72 hrs by annexinV-FITC and PI staining based flow cytometry analysis (reference value: 1.65 %). The format is functional. A general note: A flow cytometer gives signals particle by particle.
The target of data set [4] is Voltage-gated inwardly rectifying potassium channel KCNH2 (Homo sapiens, UniProt Q12809). In words: Inhibition of human ERG.
Sequence of Voltage-gated inwardly rectifying potassium channel KCNH2 (Q12809 whole entry): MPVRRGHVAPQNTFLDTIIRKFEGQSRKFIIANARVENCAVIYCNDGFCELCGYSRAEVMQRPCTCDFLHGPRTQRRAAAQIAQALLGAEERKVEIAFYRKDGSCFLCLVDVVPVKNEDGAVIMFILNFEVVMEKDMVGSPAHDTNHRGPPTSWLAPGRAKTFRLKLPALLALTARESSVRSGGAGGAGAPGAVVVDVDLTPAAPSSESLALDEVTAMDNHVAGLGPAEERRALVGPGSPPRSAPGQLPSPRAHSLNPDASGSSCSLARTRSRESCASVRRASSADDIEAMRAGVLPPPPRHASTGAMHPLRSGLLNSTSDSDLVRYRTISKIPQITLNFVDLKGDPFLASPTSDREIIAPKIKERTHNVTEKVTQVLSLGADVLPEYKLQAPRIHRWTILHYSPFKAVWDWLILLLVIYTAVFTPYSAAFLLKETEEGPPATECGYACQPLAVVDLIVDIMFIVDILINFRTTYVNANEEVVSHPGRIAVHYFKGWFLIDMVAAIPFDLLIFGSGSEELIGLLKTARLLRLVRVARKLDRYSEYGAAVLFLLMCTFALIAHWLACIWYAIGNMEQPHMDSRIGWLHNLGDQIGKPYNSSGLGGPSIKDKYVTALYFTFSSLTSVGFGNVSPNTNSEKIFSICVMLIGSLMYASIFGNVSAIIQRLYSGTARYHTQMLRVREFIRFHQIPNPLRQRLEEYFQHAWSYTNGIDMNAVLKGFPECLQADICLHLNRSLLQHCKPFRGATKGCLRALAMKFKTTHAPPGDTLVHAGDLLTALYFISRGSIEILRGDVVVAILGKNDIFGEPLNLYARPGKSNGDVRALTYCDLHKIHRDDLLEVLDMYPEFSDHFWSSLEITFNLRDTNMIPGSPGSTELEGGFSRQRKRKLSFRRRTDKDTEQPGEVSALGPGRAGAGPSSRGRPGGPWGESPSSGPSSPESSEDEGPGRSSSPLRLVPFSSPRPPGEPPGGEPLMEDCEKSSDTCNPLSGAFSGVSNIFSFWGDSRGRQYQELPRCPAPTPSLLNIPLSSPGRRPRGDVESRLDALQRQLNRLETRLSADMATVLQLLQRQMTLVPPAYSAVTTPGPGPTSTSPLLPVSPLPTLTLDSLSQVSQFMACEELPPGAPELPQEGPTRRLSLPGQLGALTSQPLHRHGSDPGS
Data set [5] has as its system 4T1. Briefly: Antitumor activity against mouse 4T1 cells xenografted in BALB/c mouse assessed as tumor growth inhibition at 50 mg/kg, po administered for 22 days and measured on day 22. Particulars: time 22.0 day. The format is functional, organism-based.
Data set [6] relates to 4T1. Briefly: Induction of apoptosis in mouse 4T1 cells assessed as late apoptotic cells at 5 uM incubated for 72 hrs by annexinV-FITC and PI staining based flow cytometry analysis (reference value: 2.24 %). Type of data set: functional.
For data set [7], the system named is MDA-MB-231. In words: Induction of cell cycle arrest in human MDA-MB-231 cells assessed as G0/G1 phase accumulation at 1 uM incubated for 24 hrs by PI staining based flow cytometry analysis (reference value: 29.10 %). The format is functional.
Data set [8] relates to 4T1. Briefly: Induction of apoptosis in mouse 4T1 cells assessed as necrotic cells at 1 uM incubated for 72 hrs by annexinV-FITC and PI staining based flow cytometry analysis (reference value: 5.00 %). The format is functional.
Data set [9] relates to MDA-MB-231. Briefly: Induction of apoptosis in human MDA-MB-231 cells assessed as viable cells at 2.5 uM incubated for 72 hrs by annexinV-FITC and PI staining based flow cytometry analysis (reference value: 90.3 %). Type of data set: functional. The note with it: read-out: Activity.
The subject of another data set is PANC-1. Briefly: Cytotoxicity against human PANC-1 cells assessed as reduction in cell viability incubated for 48 hrs by MTT assay. Type of data set: functional, cell-based. Particulars: PANC-1, 48 h. In general terms: Tetrazolium assays rely on reduction of a dye to a coloured formazan, in cell work by metabolically active cells.
Data set [10] has as its system MDA-MB-231. In words: Antitumor activity against human MDA-MB-231 cells xenografted in nude mouse assessed as tumor growth inhibition at 25 mg/kg, ip administered for 34 days and measured on day 34. Type of data set: functional, organism-based. Particulars: time 34.0 day.
Data set [11] has as its system MDA-MB-231. In words: Induction of apoptosis in human MDA-MB-231 cells assessed as late apoptotic cells at 5 uM incubated for 72 hrs by annexinV-FITC and PI staining based flow cytometry analysis (reference value: 3.79 %). Type of data set: functional.
For data set [12], the system named is MDA-MB-231. Briefly: Antitumor activity against human MDA-MB-231 cells xenografted in BALB/c mouse assessed as tumor growth inhibition at 25 mg/kg, ip administered for 34 days and measured on day 34. Type of data set: functional, organism-based. The note with it: time 34.0 day.

Sequence of Histone deacetylase 11 (Q96DB2 whole entry): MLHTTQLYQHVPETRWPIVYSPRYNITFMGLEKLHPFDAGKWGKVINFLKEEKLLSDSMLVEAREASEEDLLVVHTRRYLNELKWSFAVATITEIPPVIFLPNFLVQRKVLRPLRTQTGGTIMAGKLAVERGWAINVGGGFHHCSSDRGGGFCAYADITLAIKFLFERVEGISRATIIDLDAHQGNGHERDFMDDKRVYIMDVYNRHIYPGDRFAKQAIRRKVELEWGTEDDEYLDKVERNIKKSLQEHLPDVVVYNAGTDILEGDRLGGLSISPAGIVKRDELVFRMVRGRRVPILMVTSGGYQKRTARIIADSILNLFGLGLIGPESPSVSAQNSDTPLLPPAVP

Turning to `CN(C)CCOc1ccc(-c2cc(=O)c3c(O)cc(OCCCCCC(=O)NO)cc3o2)cc1.Cl`, the IC50 at Histone deacetylase 11 is 0.179 µM; in data set [4] it was 1.2 µM; in the data set with PANC-1, greater than 10 µM. Moreover, the result with 4T1 [1] was Active. Further, the AUC(0-inf) in data set [2] is 2840 ng·h/mL. Also, the Activity is 54.9% in the data set with 4T1 [3]; 21.9% in the data set with 4T1 [6]; 49.09% in the data set with MDA-MB-231 [7]; 3.6% in the data set on 4T1 [8]; 27.2% in the data set on MDA-MB-231 [11]. In addition, the TGI entry in the data set with 4T1 [5], in the data set with MDA-MB-231 [10] and in the data set with MDA-MB-231 [12] was “Active” throughout. Moreover, in the data set on MDA-MB-231 [9], the viability at 2.5 µM was 25.5%.
